# Laboratory results as given in patent publication US7989438B2, “Therapeutic compounds” (Istituto di Ricerche di Biologia Molecolare P. Angeletti SpA, priority 2007, dated 2011).
# Where two headings read alike, the source gives them in different places.
# Test system: HCV subgenomic replication
# Assay: Cell based HCV replication assay (subgenomic replicon in Huh-7 cells, NS3 Cell-ELISA)
# Conditions: activity ranges
# Excerpt: Cell clones that stably maintain subgenomic HCV replicon were obtained by transfecting Huh-7 cells with an RNA replicon identical to I377neo/NS3-3′/wt described by Lohmann et al. (1999) (EMBL-genbank No. AJ242652), followed by selection with neomycin sulfate (G418). Viral replication was monitored by measuring the expression of the NS3 protein by an ELISA assay performed directly on cells grown in 96 wells microtiter plates (Cell-ELISA) using the anti-NS3 monoclonal antibody 10E5/24 (as described in published International application WO 02/59321). Cells were seeded into 96 well plates at a density of 10^4 cells per well in a final volume of 0.1 ml of DMEM/10% FCS. Two hours after plating, 50 μl of DMEM/10% FCS containing a 3× concentration of inhibitor were added, cells were incubated for 96 hours and then fixed for 10 minutes with ice-cold isopropanol. Each condition was tested in duplicate and average absorbance values were used for calculations. The cells were washed twice with PBS, blocked with 5% non-fat dry milk in PBS+0.1% Triton X100+0.02% SDS (PBSTS) and then incubated o/n at 4° C. with the 10E5/24 mab diluted in Milk/PBSTS. After washing 5 times with PBSTS, the cells were incubated for 3 hours at room temperature with Fc specific anti-mouse IgG conjugated to alkaline phosphatase (Sigma), diluted in Milk/PBSTS. After washing again as above, the reaction was developed with p-Nitrophenyl phosphate disodium substrate (Sigma) and the absorbance at 405/620 nm read at intervals. For calculations, we used data sets where samples incubated without inhibitors had absorbance values comprised between 1 and 1.5. The inhibitor concentration that reduced by 50% the expression of NS3 (IC50) was calculated by fitting the data to the Hill equation, Fraction inhibition=1−(Ai−b)/(A0−b)=[I]^n/([I]^n+[…]) where: • Ai=absorbance value of HBI10 cells supplemented with the indicated inhibitor concentration. • A0=absorbance value of HBI10 cells incubated without inhibitor. • b=absorbance value of Huh-7 cells plated at the same density in the same microtiter plates and incubated without inhibitor. • n=Hill coefficient.
# [1] = Table 2, various macrocycles, read-out: IC50* (nM), Inhibition of HCV subgenomic replication
# [2] = Table A, Huh-7 replicon cells, 96 hours, read-out: IC50 (nM), Inhibition of HCV subgenomic replication
# [3] = Table 4, various macrocycles, read-out: IC50* (nM), Inhibition of HCV subgenomic replication
# [4] = Table 5, various macrocycles, read-out: IC50* (nM), Inhibition of HCV subgenomic replication
# [5] = Hepatitis C virus, Huh-7, Table 3, various macrocycles, read-out: IC50* (nM), Inhibition of HCV subgenomic replication
# [6] = Table 1, 16 membered macrocycles, read-out: IC50* (nM), Inhibition of HCV subgenomic replication
compound,measurement,setting,value
"CCN1CCN(C)[C@H]2COc3cc(C)ccc3-c3c(C4CCCCC4)c4ccc(cc4n3C2)C(=O)NS(=O)(=O)N(C)CC1 [Example 215, (7R)-14-cyclohexyl-21-ethyl-3,18,24-trimethyl-7,8-dihydro-6H-7,11-(epiminoethanoiminoethanoiminothioiminomethano)-indolo[1,2-e][1,5]benzoxazocin-15-one 17,17-dioxide]",IC50,[1],< 25 nM
"CN1CCN(C)C2COc3ccccc3-c3c(C4CCCCC4)c4ccc(cc4n3C2)C(=O)NS(=O)(=O)N(C)C(C)(C)C1 [Compound A24, (7R)-14-cyclohexyl-18,19,19,21,24-pentamethyl-7,8-dihydro-6H-7,11-(epiminoethanoiminoethanoiminothioiminomethano)indolo[1,2-e][1,5]benzoxazocin-15-one 17,17-dioxide]",IC50,[2],25 to 150 nM
"CN1CCN(C)[C@H]2COc3ccccc3-c3c(C4CCCCC4)c4ccc(cc4n3C2)C(=O)NS(=O)(=O)N(CC2CC2)CC1 [Compound A5, (7R)-14-cyclohexyl-18-(cyclopropylmethyl)-21,24-dimethyl-7,8-dihydro-6H-7,11-(epiminoethanoiminoethanoiminothioiminomethano)indolo[1,2-e][1,5]benzoxazocin-15-one 17,17-dioxide]",IC50,[2],< 25 nM
"CN1CCNCCN(C)S(=O)(=O)NC(=O)c2ccc3c(C4CCCCC4)c4n(c3c2)CC1COc1ccccc1-4 [Compound A15, (7S)-14-cyclohexyl-18,24-dimethyl-7,8-dihydro-6H-7,11-(epiminoethanoiminoethanoiminothioiminomethano)indolo[1,2-e][1,5]benzoxazocin-15-one 17,17-dioxide]",IC50,[2],150 to 500 nM
"C=CCc1cccc2c1OCC1Cn3c-2c(C2CCCCC2)c2ccc(cc23)C(=O)NS(=O)(=O)N(C)CCN(CC)CCN1C [Example 403, (7R)-4-allyl-14-cyclohexyl-21-ethyl-18,24-dimethyl-7,8-dihydro-6H-7,11-(epiminoethanoiminoethanoiminothioiminomethano)-indolo[1,2-e][1,5]benzoxazocin-15-one 17,17-dioxide]",IC50,[3],25 to 150 nM
"CN1CCN(Cc2cnn(C)c2)C2COc3ccccc3-c3c(C4CCCCC4)c4ccc(cc4n3C2)C(=O)NS(=O)(=O)N(C)CC1 [Example 409, (7R)-14-cyclohexyl-18,21-dimethyl-24-[(1-methyl-1H-pyrazol-4-yl)methyl]-7,8-dihydro-6H-7,11-(epiminoethanoiminoethanoiminothioiminomethano)-indolo[1,2-e][1,5]benzoxazocin-15-one 17,17-dioxide]",IC50,[3],< 25 nM
"CCN1CCN(CCN(C)C)C2COc3c(C)cccc3-c3c(C4CCCCC4)c4ccc(cc4n3C2)C(=O)NS(=O)(=O)N(C)CC1 [Example 219, (7R)-14-cyclohexyl-24-[2-(dimethylamino)ethyl]-21-ethyl-4,18-dimethyl-7,8-dihydro-6H-7,11-(epiminoethanoiminoethanoiminothioiminomethano)-indolo[1,2-e][1,5]benzoxazocin-15-one 17,17-dioxide]",IC50,[1],< 25 nM
"Cc1cccc2c1OCC1Cn3c-2c(C2CCCCC2)c2ccc(cc23)C(=O)NS(=O)(=O)N(C)CCN(C)CCN1C [Example 516, (7R)-14-cyclohexyl-4,18,21,24-tetramethyl-7,8-dihydro-6H-7,11-(epiminoethanoiminoethanoiminothioiminomethano)-indolo[1,2-e][1,5]benzoxazocin-15-one 17,17-dioxide]",IC50,[4],< 25 nM
"CN1C2CCN(CC2)CCN(C)S(=O)(=O)NC(=O)c2ccc3c(C4CCCCC4)c4n(c3c2)C[C@@H]1COc1ccccc1-4 [Example 302, (3R)-31-cyclohexyl-2,22-dimethyl-5-oxa-21-thia-2,13,20,22,25-pentaazahexacyclo[23.2.2.1^3,13.1^12,15.1^14,18.0^6,11]dotriaconta-6,8,10,12(31),14(30),15,17-heptaen-19-one 21,21-dioxide]",IC50,[5],< 25 nM
"CC(C)N1CCN(C)C2COc3c(F)cccc3-c3c(C4CCCCC4)c4ccc(cc4n3C2)C(=O)NS(=O)(=O)N(C)CC1 [Example 405, (7R)-14-cyclohexyl-4-fluoro-21-isopropyl-18,24-dimethyl-7,8-dihydro-6H-7,11-(epiminoethanoiminoethanoiminothioiminomethano)-indolo[1,2-e][1,5]benzoxazocin-15-one 17,17-dioxide]",IC50,[3],< 25 nM
"CCN1CCNC2COc3cc(F)ccc3-c3c(C4CCCCC4)c4ccc(cc4n3C2)C(=O)NS(=O)(=O)N(C)CC1 [Example 204, (7R)-14-cyclohexyl-21-ethyl-3-fluoro-18-methyl-7,8-dihydro-6H-7,11-(epiminoethanoiminoethanoiminothioiminomethano)-indolo[1,2-e][1,5]benzoxazocin-15-one 17,17-dioxide]",IC50,[1],25 to 150 nM
"CN1CCOC2CCN(CC2)S(=O)(=O)NC(=O)c2ccc3c(C4CCCCC4)c4n(c3c2)C[C@@H]1COc1ccccc1-4 [Example 306, (20R)-31-cyclohexyl-21-methyl-18,24-dioxa-2-thia-1,3,10,21-tetraazahexacyclo[23.2.2.1^5,9.1^8,11.1^10,20.0^12,17]dotriaconta-5(32),6,8,11(31),12,14,16-heptaen-4-one 2,2-dioxide]",IC50,[5],150 to 500 nM
"CC(C)N1CCN(C)[C@H]2COc3cc(F)ccc3-c3c(C4CCCCC4)c4ccc(cc4n3C2)C(=O)NS(=O)(=O)N(C)CC1 [Example 207, (7R)-14-cyclohexyl-3-fluoro-21-isopropyl-18,24-dimethyl-7,8-dihydro-6H-7,11-(epiminoethanoiminoethanoiminothioiminomethano)-indolo[1,2-e][1,5]benzoxazocin-15-one 17,17-dioxide]",IC50,[1],< 25 nM
"CN1CCN2CCCN(CC2)S(=O)(=O)NC(=O)c2ccc3c(C4CCCCC4)c4n(c3c2)C[C@@H]1COc1ccccc1-4 [Example 304, (20R)-31-cyclohexyl-21-methyl-18-oxa-2-thia-1,3,10,21,24-pentaazahexacyclo[22.3.2.1^5,9.1^8,11.1^10,20.0^12,17]dotriaconta-5(32),6,8,11(31),12,14,16-heptaen-4-one 2,2-dioxide]",IC50,[5],< 25 nM
"CC(C)N1CCCC2COc3ccccc3-c3c(C4CCCCC4)c4ccc(cc4n3C2)C(=O)NS(=O)(=O)N(C)CC1 (stereo not shown) [Example 509, 14-cyclohexyl-21-isopropyl-18-methyl-7,8-dihydro-6H-7,11-(propanoiminoethanoiminothioiminomethano)indolo[1,2-e][1,5]benzoxazocin-15-one 17,17-dioxide]",IC50,[4],< 25 nM
"O=C1NS(=O)(=O)N2CCN(CCCC3COc4ccccc4-c4c(C5CCCCC5)c5ccc1cc5n4C3)CC2 (stereo not shown) [Compound A34, 30-cyclohexyl-18-oxa-2-thia-1,3,10,24-tetraazahexacyclo[22.2.2.1^5,9.1^8,11.1^10,20.0^12,17]hentriaconta-5(31),6,8,11(30),12,14,16-heptaen-4-one 2,2-dioxide]",IC50,"Hepatitis C virus, Table A, Huh-7 replicon cells, 96 hours, read-out: IC50 (nM), Inhibition of HCV subgenomic replication",25 to 150 nM
"CN1CCN(CCO)CCN(C)S(=O)(=O)NC(=O)c2ccc3c(C4CCCCC4)c4n(c3c2)CC1COc1ccccc1-4 [Example 103, (7R)-14-cyclohexyl-21-(2-hydroxyethyl)-18,24-dimethyl-7,8-dihydro-6H-7,11-(epiminoethanoiminoethanoiminothioiminomethano)-indolo[1,2-e][1,5]benzoxazocin-15-one 17,17-dioxide]",IC50,[6],< 25 nM
"CN1CCN(C)[C@H]2COc3c(OCc4ccccc4)cccc3-c3c(C4CCCCC4)c4ccc(cc4n3C2)C(=O)NS(=O)(=O)N(C)CC1 [Example 411, (7R)-4-(benzyloxy)-14-cyclohexyl-18,21,24-trimethyl-7,8-dihydro-6H-7,11-(epiminoethanoiminoethanoiminothioiminomethano)-indolo[1,2-e][1,5]benzoxazocin-15-one 17,17-dioxide]",IC50,[3],25 to 150 nM
"CN1CCCN(C)S(=O)(=O)NC(=O)c2ccc3c(C4CCCCC4)c4n(c3c2)CC(CC1)COc1ccccc1-4 (stereo not shown) [Example 101, 14-cyclohexyl-18,22-dimethyl-7,8-dihydro-6H-7,11-(ethanoiminopropanoiminothioiminomethano)indolo[1,2-e][1,5]benzoxazocin-15-one 17,17-dioxide]",IC50,[6],25 to 150 nM
